US5391540A, “Substituted pyridine compounds” (Rohm and Haas Company, priority 1993, dated 1995)

Tests used:
Assay type in all cases: in vivo
[1] = tested on: Dobr; assay: plant injury after spraying emerged plants (Table D)
[2] = tested on: Bygr; assay: as above; parameters: scale not given here
How it was run: (§1)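 Seeds or perennial propagules were pressed onto steam-sterilized sieved silt loam topsoil and covered with 1.27 cm of a 50:50 topsoil and peat moss/vermiculite/wetting agent mix. Pans were kept on a greenhouse bench over capillary mat and subirrigated as needed.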

[3] = tested on: Cobu; assay: as above; parameters: scale not given here
How it was run: as §1

[4] = tested on: Grft; assay: as above; parameters: scale not given here
How it was run: as §1

[5] = tested on: Grso; assay: as above; parameters: scale not given here
How it was run: as §1

[6] = tested on: Lacg; assay: as above; parameters: scale not given here
How it was run: as §1

[7] = tested on: Corn; assay: as above; parameters: scale not given here
How it was run: as §1

[8] = tested on: Whez; assay: as above; parameters: scale not given here
How it was run: as §1

[9] = tested on: Sobe; assay: as above; parameters: scale not given here
How it was run: as §1

[10] = tested on: Rice; assay: as above; parameters: scale not given here
How it was run: as §1

[11] = tested on: Cocklebur; assay: Pre-emergent herbicidal activity (Table A); settings: Xanthium strumarium, pre-emergence, Cobu, 11.2 kg/ha, 10-14 days, read-out: herbicidal rating (% inhibition)
How it was run: (§2)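 Seeds or vegetative propagules were set on topsoil compacted to 0.95 to 1.27 cm below the pan rim, then covered with soil thoroughly mixed with a known amount of test compound in acetone or water carrier. Ratings follow a scale of percent inhibition per species.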

[12] = tested on: Morningglory; assay: Pre-emergent herbicidal activity (Table A); settings: Ipomoea, pre-emergence, Mogl, 11.2 kg/ha, 10-14 days, read-out: herbicidal rating (% inhibition)
How it was run: as §2

[13] = tested on: Velvetleaf; assay: Pre-emergent herbicidal activity (Table A); settings: Abutilon theophrasti, pre-emergence, Vele, 11.2 kg/ha, 10-14 days, read-out: herbicidal rating (% inhibition)
How it was run: as §2

[14] = tested on: Downy Brome; assay: Pre-emergent herbicidal activity (Table A); settings: Bromus tectorum, pre-emergence, Dobr, 11.2 kg/ha, 10-14 days, read-out: herbicidal rating (% inhibition)
How it was run: as §2

[15] = tested on: Barnyardgrass; assay: Pre-emergent herbicidal activity (Table A); settings: Echinochloa crus-galli, pre-emergence, Bygr, 11.2 kg/ha, 10-14 days, read-out: herbicidal rating (% inhibition)
How it was run: as §2

[16] = tested on: Yellow Nutsedge; assay: Pre-emergent herbicidal activity (Table A); settings: Cyperus, pre-emergence, Yens, 11.2 kg/ha, 10-14 days, read-out: herbicidal rating (% inhibition)
How it was run: as §2

COC(=O)c1c(OC)nc(C(F)(F)F)c(C(=O)n2ccc(F)n2)c1C1CCC1 [Compound 140, 3-pyridinecarboxylic acid, 4-cyclobuty1-5-[(3-fluoro-1H-pyrazo1-1-yl)carbonyl]-2-methoxy-6-(trifluoromethyl)-, methyl ester]
plant injury rating, Dobr ([1]; 0.2803 kg/ha): 0 | plant injury rating, Dobr ([1]; 1.1210 kg/ha): 0 | plant injury rating, Dobr ([1]; 5.6050 kg/ha): 0 | plant injury rating, Bygr ([2]; 0.2803 kg/ha): 0 | plant injury rating, Bygr ([2]; 1.1210 kg/ha): 0 | plant injury rating, Bygr ([2]; 5.6050 kg/ha): 0 | plant injury rating, Cobu ([3]; 0.2803 kg/ha): 1 | plant injury rating, Cobu ([3]; 1.1210 kg/ha): 3 | plant injury rating, Cobu ([3]; 5.6050 kg/ha): 3 | plant injury rating, Grft ([4]; 0.2803 kg/ha): 0 | plant injury rating, Grft ([4]; 1.1210 kg/ha): 0 | plant injury rating, Grft ([4]; 5.6050 kg/ha): 0 | plant injury rating, Grso ([5]; 0.2803 kg/ha): 0 | plant injury rating, Grso ([5]; 1.1210 kg/ha): 0 | plant injury rating, Grso ([5]; 5.6050 kg/ha): 0 | plant injury rating, Lacg ([6]; 0.2803 kg/ha): 2 | plant injury rating, Lacg ([6]; 1.1210 kg/ha): 2 | plant injury rating, Lacg ([6]; 5.6050 kg/ha): 3 | plant injury rating, Corn ([7]; 0.2803 kg/ha): 2 | plant injury rating, Corn ([7]; 1.1210 kg/ha): 1 | plant injury rating, Corn ([7]; 5.6050 kg/ha): 2 | plant injury rating, Whez ([8]; 0.2803 kg/ha): 0 | plant injury rating, Whez ([8]; 1.1210 kg/ha): 0 | plant injury rating, Whez ([8]; 5.6050 kg/ha): 0 | plant injury rating, Sobe ([9]; 1.1210 kg/ha): 2 | plant injury rating, Sobe ([9]; 5.6050 kg/ha): 2 | plant injury rating, Rice ([10]; 0.2803 kg/ha): 0 | plant injury rating, Rice ([10]; 1.1210 kg/ha): 0 | plant injury rating, Rice ([10]; 5.6050 kg/ha): 0 | inhibition at 11200 g/ha [11]: 0 to 24% | inhibition at 11200 g/ha [12]: 75 to 100% | inhibition at 11200 g/ha [13]: 75 to 100% | inhibition at 11200 g/ha [14]: 75 to 100% | inhibition at 11200 g/ha [15]: 75 to 100% | inhibition at 11200 g/ha [16]: 0 to 24%
